The values below come from patent US9309222B2, “Phenyl linked quinolinyl modulators of RORγt” (Janssen Pharmaceutica NV, priority 2012, dated 2016).

Structures are written as SMILES. Counter-ions that a name gives are not always drawn.

Usually inhibition stands for the drop in the measured response relative to a control, in per cent. As a reminder, the Kd is the concentration at which binding is half-saturated. Usually IC50 stands for the midpoint of a concentration-inhibition curve. Read a low IC50 as inhibition by little substance.

In one experiment the target is T1, human RORγt LBD (Homo sapiens, UniProt P51449).
T1 construct: expressed in transfected cells
T1 sequence (P51449 258-518): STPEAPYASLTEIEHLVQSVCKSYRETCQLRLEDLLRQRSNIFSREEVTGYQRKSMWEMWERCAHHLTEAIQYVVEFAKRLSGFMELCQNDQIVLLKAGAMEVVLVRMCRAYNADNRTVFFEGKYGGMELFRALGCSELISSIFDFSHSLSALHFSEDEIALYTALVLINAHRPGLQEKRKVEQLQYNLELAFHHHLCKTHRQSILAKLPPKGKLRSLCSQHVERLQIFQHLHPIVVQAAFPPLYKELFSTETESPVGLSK
The experiment in a line: RORγt reporter assay (GAL4-RORγt LBD luciferase in HEK293T cells). The experiment is classed as cell-based. Particulars: for inhibition at 6 µM: HEK-293T, read-out: RORγt reporter Assay, % inhibition @ 6 μM, HEK293T cells, 6 μM compound; for IC50: 24 hours compound treatment. An excerpt: A reporter assay was used to test functional activity of RORγt modulatory compounds on transcriptional activation driven by the RORγt LBD. Cells used in the assay were co-transfected with two constructs. The first construct, pBIND-RORγt LBD, contained the wild type human RORγt LBD fused to the DNA binding domain of the GAL4 protein. The second construct, pGL4.31 (Promega Cat no. C935A), contained multiple GAL4 responsive DNA elements upstream of firefly luciferase. […] The mutant construct was called pBIND-RORγt-AF2.
The pBIND vector contains the GAL4 DNA Binding Domain (GAL4 DBD) and the renilla luciferase gene under control of the SV40 promoter. Renilla luciferase expression serves as a control for transfection efficiency and cell viability.
The reporter assay was performed by transiently transfecting HEK293T cells with 5 ng of pBIND-RORγt LBD or pBIND-RORγt LBD-AF2 and 5 μg pGL4.31 (Promega Cat no. C935A) using Fugene 6 (Invitrogen Cat no. E2691) at a 1:6 ratio of DNA:Fugene 6 in a T-75 flask in which cells were at least 80% confluent. Twenty four hours after bulk transfection, cells were plated into 96-well plates at 50,000 cells/well in phenol-red free DMEM containing 5% Lipid Reduced FCS and Pen/Strep. Six hours after plating, cells were treated with compounds for 24 hours. Media was removed and cells were lysed with 50 μL 1× Glo Lysis Buffer (Promega). Dual Glo Luciferase Reagent (50 μL/well) was then added and firefly luciferase luminescence was read on an Envision after a ten minute incubation. Finally, Stop and Glo reagent (50 μL/well) was added and renilla luciferase luminescence was read on an Envision after a ten minute incubation. To calculate the effect of compounds on RORγt activity, the ratio of firefly to renilla luciferase was determined and plotted against compound concentration. Agonist compounds increase RORγt-driven luciferase expression, and antagonist or inverse agonist compounds decrease luciferase expression.
(In general: Reporter assays use an easily measured gene product as a stand-in for the process of interest.)

Experiment [1] concerns the target T2, human RORγt ligand binding domain (RORγt LBD) (Homo sapiens, UniProt P51449).
T2 construct: His-tag (N); TurboTEV protease cleavage site (ENLYFQG) (N); made in house; host or cells: E. coli (pHIS1, modified pET vector)
T2 sequence (P51449 with tags, fused parts or gaps): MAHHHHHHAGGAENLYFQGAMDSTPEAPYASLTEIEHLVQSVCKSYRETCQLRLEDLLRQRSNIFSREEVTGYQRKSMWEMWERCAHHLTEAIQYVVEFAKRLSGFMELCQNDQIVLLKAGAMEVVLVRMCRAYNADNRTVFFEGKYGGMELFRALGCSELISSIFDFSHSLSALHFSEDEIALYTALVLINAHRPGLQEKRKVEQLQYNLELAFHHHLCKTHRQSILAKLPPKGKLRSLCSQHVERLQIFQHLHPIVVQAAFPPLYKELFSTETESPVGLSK
The experiment can be described thus: RORγt ThermoFluor assay (thermal shift, ligand binding affinity). Particulars: estimated from concentration response of thermal shift. On the procedure:
This approach is applicable to a wide variety of systems, and rigorous in theoretical interpretation through quantitation of equilibrium binding constants (KD).
The shift in the melting point described as a ΔTm is proportional to the concentration and affinity of the ligand.
RORγt ThermoFluor® Assay Construct
Protein and compound solutions are dispensed into black 384-well polypropylene PCR microplates (Abgene) and overlayed with silicone oil (1 μL Fluka, type DC 200) to prevent evaporation.
Fluorescence was measured by continuous illumination with UV light (Hamamatsu LC6) supplied via fiber optic and filtered through a band-pass filter (380-400 nm; >6 OD cutoff). Fluorescence emission of the entire 384-well plate was detected by measuring light intensity using a CCD camera (Sensys, Roper Scientific) filtered to detect 500±25 nm, resulting in simultaneous and independent readings of all 384 wells. Images were collected at each temperature, and the sum of the pixel intensity in a given area of the assay plate was recorded versus temperature. Reference wells contained RORγt without compounds, and the assay conditions were as follows: • 0.065 mg/mL RORγt • 60 μM 1,8-ANS • 100 mM Hepes, pH 7.0 • 10 mM NaCl • 2.5 mM GSH • 0.002% Tween-20
Project compounds were arranged in a pre-dosed mother plate (Greiner Bio-one) wherein compounds are serially diluted in 100% DMSO by 1:2 from a high concentration of 10 mM over 12 columns within a series (column 12 is a reference well containing DMSO, no compound).
The compounds were robotically dispensed directly into assay plates (1×=[…]) using a Hummingbird capillary liquid handling instrument (Digilab). Following compound dispense, protein and dye in buffer was added to achieve the final assay volume of 3 μL, followed by 1 μL of silicone oil.

`Cn1cncc1C(O)(c1ccc(C(F)(F)F)nc1)c1ccc2nc(C(F)(F)F)c(-c3ccccc3)c(C#N)c2c1` (racemic) [Example 173a, 6-(Hydroxy(1-methyl-1H-imidazol-5-yl)(6-(trifluoromethyl)pyridin-3-yl)methyl)-3-phenyl-2-(trifluoromethyl)quinoline-4-carbonitrile•TFA]: at human RORγt LBD, the inhibition at 6 µM was 103%.

As to `CC(=O)N1CCC(C(O)(c2ccc3nc(C(F)(F)F)c(-c4ccccc4)c(C(F)(F)F)c3c2)c2cncn2C)CC1` (racemic) [Example 181a, 1-(4-(Hydroxy(1-methyl-1H-imidazol-5-yl)(3-phenyl-2,4-bis(trifluoromethyl)quinolin-6-yl)methyl)piperidin-1-yl)ethanone], the Kd in experiment [1] was 16 nM. Moreover, the half-inhibitory concentration (IC50) against human RORγt LBD (HEK293T cells) came to 140 nM. Also, the inhibition at 6 µM on human RORγt LBD worked out at 101%.

Turning to `COc1nc2c(C)cc(C(O)(c3ccc(C(F)(F)F)nc3)c3cncn3C)cc2c(Cl)c1-c1ccc(OC(F)(F)F)cc1` (racemic) [Example 183a, (4-Chloro-2-methoxy-8-methyl-3-(4-(trifluoromethoxy)phenyl)quinolin-6-yl)(1-methyl-1H-imidazol-5-yl)(6-(trifluoromethyl)pyridin-3-yl)methanol•TFA], the Kd in experiment [1] is 9.3 nM. Besides, on human RORγt LBD (HEK293T cells), the concentration for half-maximal inhibition (IC50) was above 6000 nM.

Take `Cn1cncc1C(O)(c1ccc2nc(C(F)(F)F)c(-c3ccccc3)c(C(F)(F)F)c2c1)c1ccccn1` (racemic) [Example 185a, (1-Methyl-1H-imidazol-5-yl)(3-phenyl-2,4-bis(trifluoromethyl)quinolin-6-yl)(pyridin-2-yl)methanol]: the Kd in experiment [1] is 74 nM. The compound further gave a half-inhibitory concentration (IC50) against human RORγt LBD (HEK293T cells) of 200 nM. The inhibition at 6 µM on human RORγt LBD was 100%.

For `Cn1cncc1C(O)(c1ccc(Cl)cc1)c1ccc2nc(Cl)c(-c3ccccc3Cl)c(Cl)c2c1` (single isomer, unassigned) [Example 153d, (4-Chlorophenyl)(2,4-dichloro-3-(2-chlorophenyl)quinolin-6-yl)(1-methyl-1H-imidazol-5-yl)methanol], the Kd in experiment [1] was 3500 nM. The “RORγt reporter Assay, % inhibition @ 6 μM” value at human RORγt LBD (HEK293T cells, 6 μM compound, 6 µM) was found to be 75%. At human RORγt LBD (HEK293T cells), this compound showed a half-inhibitory concentration (IC50) of 1500 nM.

On to `Cn1cncc1C(O)(c1ccc(C(F)(F)F)nc1)c1ccc2nc(C(F)(F)F)c(-c3ccccc3)c(C#N)c2c1` (single isomer, unassigned) [Example 173b, 6-(Hydroxy(1-methyl-1H-imidazol-5-yl)(6-(trifluoromethyl)pyridin-3-yl)methyl)-3-phenyl-2-(trifluoromethyl)quinoline-4-carbonitrile], for which the inhibition at 6 µM at human RORγt LBD came to 100%.

With `Cc1cc(C(O)(c2ccc(F)cc2)c2cncn2C)cc2c(C#N)c(-c3cccc(F)c3)c(C#N)nc12` (single isomer, unassigned) [Example 175b, 3-(3-Fluorophenyl)-6-((4-fluorophenyl)(hydroxy)(1-methyl-1H-imidazol-5-yl)methyl)-8-methylquinoline-2,4-dicarbonitrile], the dissociation constant Kd in experiment [1] is 8200 nM. Besides, half-maximal inhibition at human RORγt LBD (HEK293T cells) (IC50) was put at 2100 nM. Besides, the inhibition at 6 µM on human RORγt LBD stood at 76%.

`Cc1cc(C(O)(c2ccc(C(F)(F)F)nc2)c2cncn2C)cc2c(C#N)c(-c3cccc(F)c3)c(C#N)nc12` (single isomer, unassigned) [Example 176b, 3-(3-Fluorophenyl)-6-(hydroxy(1-methyl-1H-imidazol-5-yl)(6-(trifluoromethyl)pyridin-3-yl)methyl)-8-methylquinoline-2,4-dicarbonitrile]: in experiment [1], the dissociation constant Kd was 3400 nM. In addition, at human RORγt LBD (HEK293T cells), the half-maximal inhibitory concentration (IC50) came to 1500 nM. Further, the inhibition at 6 µM at human RORγt LBD came out at 94%.

With `Cc1ccc(C(O)(c2cc[nH]c2)c2cc(C)c3nc(Cl)c(-c4ccccc4)c(Cl)c3c2)cn1` (centres unmarked) [Example 157, (2,4-Dichloro-8-methyl-3-phenylquinolin-6-yl)(6-methylpyridin-3-yl)(1H-pyrrol-3-yl)methanol•TFA], the dissociation constant Kd in experiment [1] was 2800 nM.
